Ends that are not written are not given here. Peptide text beside a SMILES is read from it.
B1: PD-L1(110-128)(V111C-T127C), biotin-(Gly)5 form (peptide)
chain: GCYRCMISYGGADYKRICV
HELM: PEPTIDE1{[O=C1N[C@H]2[C@H](CS[C@H]2CCCCC(=O)[*:2])N1].G.G.G.G.G.G.C.Y.R.[Abu].[Nle].I.S.Y.G.G.A.D.Y.K.R.I.C.V.[am]}$PEPTIDE1,PEPTIDE1,8:R3-24:R3$$$V2.0
SMILES: CCCC[C@@H]1NC(=O)[C@H](CC)NC(=O)[C@H](CCCNC(=N)N)NC(=O)[C@H](Cc2ccc(O)cc2)NC(=O)[C@@H](NC(=O)CNC(=O)CNC(=O)CNC(=O)CNC(=O)CNC(=O)CNC(=O)CCCC[C@@H]2SC[C@@H]3NC(=O)N[C@@H]32)CSSC[C@@H](C(=O)N[C@H](C(N)=O)C(C)C)NC(=O)[C@H]([C@@H](C)CC)NC(=O)[C@H](CCCNC(=N)N)NC(=O)[C@H](CCCCN)NC(=O)[C@H](Cc2ccc(O)cc2)NC(=O)[C@H](CC(=O)O)NC(=O)[C@H](C)NC(=O)CNC(=O)CNC(=O)[C@H](Cc2ccc(O)cc2)NC(=O)[C@H](CO)NC(=O)[C@H]([C@@H](C)CC)NC1=O
B2: PD-L1(111-127), biotin-(Gly)5 form (peptide)
chain: VYRCMISYGGADYKRIT
HELM: PEPTIDE1{[O=C1N[C@H]2[C@H](CS[C@H]2CCCCC(=O)[*:2])N1].G.G.G.G.G.V.Y.R.[Abu].[Nle].I.S.Y.G.G.A.D.Y.K.R.I.T.[am]}$$$$V2.0
SMILES: CCCC[C@H](NC(=O)[C@H](CC)NC(=O)[C@H](CCCNC(=N)N)NC(=O)[C@H](Cc1ccc(O)cc1)NC(=O)[C@@H](NC(=O)CNC(=O)CNC(=O)CNC(=O)CNC(=O)CNC(=O)CCCC[C@@H]1SC[C@@H]2NC(=O)N[C@@H]21)C(C)C)C(=O)N[C@H](C(=O)N[C@@H](CO)C(=O)N[C@@H](Cc1ccc(O)cc1)C(=O)NCC(=O)NCC(=O)N[C@@H](C)C(=O)N[C@@H](CC(=O)O)C(=O)N[C@@H](Cc1ccc(O)cc1)C(=O)N[C@@H](CCCCN)C(=O)N[C@@H](CCCNC(=N)N)C(=O)N[C@H](C(=O)N[C@H](C(N)=O)[C@@H](C)O)[C@@H](C)CC)[C@@H](C)CC
B3: PD-L1(113-126), biotin-(Gly)5 form (peptide)
chain: RCMISYGGADYKRI
HELM: PEPTIDE1{[O=C1N[C@H]2[C@H](CS[C@H]2CCCCC(=O)[*:2])N1].G.G.G.G.G.R.[Abu].[Nle].I.S.Y.G.G.A.D.Y.K.R.I.[am]}$$$$V2.0
SMILES: CCCC[C@H](NC(=O)[C@H](CC)NC(=O)[C@H](CCCNC(=N)N)NC(=O)CNC(=O)CNC(=O)CNC(=O)CNC(=O)CNC(=O)CCCC[C@@H]1SC[C@@H]2NC(=O)N[C@@H]21)C(=O)N[C@H](C(=O)N[C@@H](CO)C(=O)N[C@@H](Cc1ccc(O)cc1)C(=O)NCC(=O)NCC(=O)N[C@@H](C)C(=O)N[C@@H](CC(=O)O)C(=O)N[C@@H](Cc1ccc(O)cc1)C(=O)N[C@@H](CCCCN)C(=O)N[C@@H](CCCNC(=N)N)C(=O)N[C@H](C(N)=O)[C@@H](C)CC)[C@@H](C)CC

Biological target: PD-1 protein
Assay: not given
Details: Table S5, supplement reference list; NB = no binding; ref [6]; read-out: Affinity (KD); cited from earlier work
In the case of FRWWR [WANG-004], the Kd is listed as 1.6 µM. In the case of KRWWR [WANG-003], the Kd is listed as 3.3 µM. In the case of RRWQWR [WANG-005], the Kd is listed as 5.1 µM.

Same assay, conditions: Table S5, supplement reference list; ref [3]; read-out: Affinity (KD); cited from earlier work
In the case of FNWDYSLEELREKAKYK [Ar5Y_2], the Kd is given as 3.14 µM. For FNWDYSWKSERLKEAYDL [Ar5Y_1], the Kd is given as 3.39 µM. In the case of GIDYEERWK [Ar4_1], the Kd is listed as 28.3 µM. In the case of GNADYNSQRAQLYNQ [Ar5Y_4 W3A], the Kd is given as 8.08 µM. In the case of GNWAYNSQRAQLYNQ [Ar5Y_4 D4A], the Kd is listed as 18.9 µM. For GNWDANSQRAQLYNQ [Ar5Y_4 Y5A], the Kd is given as 20.2 µM. For GNWDYNSQAAQLYNQ [Ar5Y_4 R9A], the Kd is given as 21.2 µM. For GNWDYNSQRAQLANQ [Ar5Y_4 Y13A], the Kd is given as 10.2 µM. For GNWDYNSQRAQLYNQ [Ar5Y_4], the Kd is given as 1.38 µM. For LDYDGRLSQ [Ar4_2], the Kd is given as 83.9 µM. In the case of LDYGDKREGQMAE [Ar5M_1], the Kd is given as 21.6 µM. In the case of LDYVNRRKMYQ [Ar5M_2], the Kd is given as 3.32 µM. For TEKDYRHGNIRMKLAYDL [Ar5Y_3], the Kd is listed as 3.13 µM. For WDYD [Ar3_1], the Kd is given as 22.3 µM.

Same assay, conditions: Table S5, supplement reference list; ref [8]; read-out: Affinity (KD); cited from earlier work
For “CVYRCMISYGGADYKRITC (disulfide (positions not given here)) [ΔDS-II [C110–C128]]”, the Kd is listed as 11.6 µM. In the case of “CYRCMISYGGADYKRIC (disulfide (positions not given here))”, the Kd is listed as 17.5 µM.

Same assay, conditions: Table S5, supplement reference list; ref [10]; read-out: Affinity (KD); cited from earlier work
In the case of DYHDPSLPTLRK [CLP004], the Kd is given as 0.544 µM. For HYPFRPHANQAS [CLP001], the Kd is given as 0.534 µM. In the case of WHFSYNWRWLPP [CLP003], the Kd is given as 0.117 µM. In the case of WHRSYYTWNLNT [CLP002], the Kd is given as 0.366 µM.

Same assay, conditions: Table S5, supplement reference list; ref [11]; read-out: Affinity (KD); cited from earlier work
In the case of RCMICYGGADYKRI [Peptide P1.1], the Kd is given as 3.66 µM. For RCMISYpGADYKRI [Peptide P1.2], the Kd is given as 83 µM. In the case of RTCITYpGADYCRI [Peptide P1.4], the Kd is given as 474 µM. For RTMIWYAAAWYKRI [Peptide P2.2], the Kd is given as 55.2 µM. For RTMIWYGpAWYKRI [Peptide P2.3], the Kd is given as 129 µM. In the case of RTMIWYpPAWYKRI [Peptide P2.1], the Kd is listed as 29.2 µM.

Same assay, conditions: Table S5, supplement reference list; ref [12]; read-out: Affinity (KD); cited from earlier work
In the case of KSKAVNRVSQESEM [Pep6], the Kd is given as 66.4 µM. In the case of LERHDFGDGRARYEE [Pep10], the Kd is listed as 39 µM. For LETWFGKEILVKT [Pep1], the Kd is listed as 140 µM. In the case of LEYWSSGSTTMYGL [Pep9], the Kd is given as 36.4 µM. In the case of QYRCNGTSSKGSDQAIITLRV [Pep14], the Kd is listed as 10.9 µM. In the case of TFKVEDRYGQGQQILD [Pep4], the Kd is listed as 22.7 µM. In the case of TSEVDNGVGKPQKHS [Pep3], the Kd is given as 81.1 µM. In the case of VFELRHSKRKDSRTVY [Pep2], the Kd is given as 127 µM.

Same assay, conditions: Table S5, supplement reference list; ref [13]; read-out: Affinity (KD); cited from earlier work
In the case of [TMYLerRYpD] [PD-i3], the Kd is listed as 102 µM.

Same assay, conditions: Table S5, supplement reference list; ref [16]; read-out: Affinity (KD); cited from earlier work
For [CKWYRPSEC] [Peptide C8], the Kd is given as 0.64 µM.

Same assay, conditions: Table S5, supplement reference list; ref [17]; read-out: Affinity (KD); cited from earlier work
In the case of FSGTVTTAGLLF [P-F4], the Kd is listed as 0.119 µM.

Same assay, conditions: Table S5, supplement reference list; ref [18]; read-out: Affinity (KD); cited from earlier work
In the case of “SHHHRLSRLKEIANSPTQFWRMVARNTLGNGAKQSLNIEHARL [nABPD1]”, the Kd is given as 0.0119 µM. In the case of “SRLKEIANSPTQFWRMVARNTLGNGAKQSLNIEHARL [nABP284]”, the Kd is given as 11.8 µM.

Same assay, conditions: Table S5, supplement reference list; ref [19]; read-out: Affinity (KD); cited from earlier work
For RRQWFW [JD2], the Kd is given as 4.38 µM. In the case of RRWWRR [JD1], the Kd is listed as 4.01 µM.

Same assay, conditions: Table S5, supplement reference list; ref [21]; read-out: Affinity (KD); cited from earlier work
For CRAMISYGGADYK-(N-Me-Arg)-IC [MN1.4], the Kd is listed as 2 µM.

Same assay, conditions: Table S5, supplement reference list; ref [22]; read-out: Affinity (KD); cited from earlier work
In the case of SGQQRTSADCWEDHGWGSGGSK [PBP], the Kd is listed as 17.4 µM.

Biological target: programmed cell death 1 (PD-1) (human, UniProt Q15116 25-170)
Sequence (Q15116 25-170): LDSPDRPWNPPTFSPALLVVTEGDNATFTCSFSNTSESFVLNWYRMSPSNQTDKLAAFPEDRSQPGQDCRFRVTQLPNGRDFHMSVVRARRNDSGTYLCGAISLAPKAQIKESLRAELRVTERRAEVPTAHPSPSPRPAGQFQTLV
Assay: SPR; Biacore T200; biotin-(Gly)5-peptides immobilised on an SA sensor chip (~800 RU, L1 ~500 RU); PD-1 injected at 0.31-10 µM (two-fold dilutions); PBS-P running buffer, 30 µl/min, 25°C; 1:1 binding model, at least three titrations
Details: both partners purified
Work on B1 yielded a koff of 0.00071 s⁻¹ and a kon of 33.1 M⁻¹ s⁻¹. For B2, the koff was 0.00179 s⁻¹ and the kon was 10.9 M⁻¹ s⁻¹. Work on B3 yielded a koff of 0.000194 s⁻¹ and a kon of 24.7 M⁻¹ s⁻¹.

System: not listed separately
Assay: Solubility in water
Assay type: physicochemical
Details: not given
Source text: To increase solubility, its sequence was elongated at the N- and C-terminals by adding hydrophilic amino acids from the protein sequence. […] These modifications were introduced to prevent the oxidation of methionine and cysteine.
For `CCCC[C@H](NC(=O)[C@H](CCC(=O)O)NC(=O)[C@H](Cc1c[nH]c2ccccc12)NC(=O)[C@H](Cc1ccc(O)cc1)NC(=O)[C@@H](NC(=O)[C@@H](NC(=O)[C@H](CC(C)C)NC(=O)[C@H](C)NC(C)=O)[C@@H](C)CC)C(C)C)C(=O)N[C@@H](CCC(=O)O)C(=O)N[C@@H](CC(=O)O)C(=O)N[C@@H](CCCCN)C(=O)N[C@@H](CC(N)=O)C(=O)N[C@H](C(=O)N[C@H](C(=O)N[C@@H](CCC(N)=O)C(=O)N[C@@H](Cc1ccccc1)C(=O)N[C@H](C(N)=O)C(C)C)[C@@H](C)CC)[C@@H](C)CC` [Peptide L2] (HELM PEPTIDE1{[ac].A.L.I.V.Y.W.E.[Nle].E.D.K.N.I.I.Q.F.V.[am]}$$$$V2.0), the “Solubility in water” value was “poorly soluble in water”. With `CCCC[C@H](NC(=O)[C@H](CCC(=O)O)NC(=O)[C@H](Cc1c[nH]c2ccccc12)NC(=O)[C@H](Cc1ccc(O)cc1)NC(=O)[C@@H](NC(=O)[C@@H](NC(=O)[C@H](CC(C)C)NC(=O)[C@H](C)NC(C)=O)[C@@H](C)CC)C(C)C)C(=O)N[C@@H](CCC(=O)O)C(=O)N[C@@H](CC(=O)O)C(=O)N[C@@H](CCCCN)C(=O)N[C@@H](CC(N)=O)C(=O)N[C@H](C(=O)N[C@H](C(=O)N[C@@H](CCC(N)=O)C(=O)N[C@@H](Cc1ccccc1)C(=O)N[C@H](C(=O)N[C@@H](Cc1c[nH]cn1)C(=O)NCC(=O)N[C@@H](CCC(=O)O)C(=O)N[C@@H](CCC(=O)O)C(=O)N[C@@H](CC(=O)O)C(N)=O)C(C)C)[C@@H](C)CC)[C@@H](C)CC` [Peptide L3] (HELM PEPTIDE1{[ac].A.L.I.V.Y.W.E.[Nle].E.D.K.N.I.I.Q.F.V.H.G.E.E.D.[am]}$$$$V2.0) the “Solubility in water” value was “no positive effect on the solubility”.

Biological target: PD-L1 protein
Assay: not given
Details: Table S6, supplement reference list; ref [34]; read-out: Affinity (KD); cited from earlier work
Source text: Supplement mmc1.docx, table 8: Table S6. […] D - amino acids are marked with a lowercase letter. NB - no binding; ND - no data; JD - no name given by the authors. | column: Affinity (KD) [µM]
For SGQYASYHCWCWRDPGRSGGSK [TPP-1], the Kd is given as 0.095 µM.

Same assay, conditions: Table S6, supplement reference list; ref [36]; read-out: Affinity (KD); cited from earlier work
In the case of CLQKTPKQC [PD-L1Pep-1], the Kd is listed as 0.373 µM. For CVRARTR [PD-L1Pep-2], the Kd is listed as 0.281 µM.

Same assay, conditions: Table S6, supplement reference list; ref [38]; read-out: Affinity (KD); cited from earlier work
For GQSEHHMRVYSF [OPBP-1], the Kd is listed as 0.667 µM.

Same assay, conditions: Table S6, supplement reference list; ref [40]; read-out: Affinity (KD); cited from earlier work
In the case of GTRLKPLIICVQWPGL [PD-L1ip3], the Kd is listed as 33 µM.

Same assay, conditions: Table S6, supplement reference list; ref [47]; read-out: Affinity (KD); cited from earlier work
In the case of DWFKAFYDKINETYNK [Peptide 4F-32], the Kd is given as 0.017 µM. In the case of DWIKANYDETAEYNKEAK [Peptide 4F-30], the Kd is listed as 419 µM. For GDWFKAYYDKVAEG [Peptide 4F-8], the Kd is listed as 412 µM. For SHFSASYDKYAEKF [Peptide 4F-16], the Kd is listed as 49.4 µM.

Source: paper PMC10877416 (Translational Oncology, 2024)
